pIC50: −log10 of the molar value.
Key:
[1] = system: HCT-116 p53+/+ isogenic colon cancer cells; test: MTT cytotoxicity assay, HCT116 p53+/+; assay type: cell-based; details: Homo sapiens, HCT-116, 72 h, HCT116 p53+/+ (wild-type), 3 days, read-out: Means of IC50
Protocol: (§1) The test compound of pomiferin is dissolved in DMSO at a final concentration of 100 mmol/L and stored at −20° C. Cytotoxicity is assessed using the 3-(4,5-dimethylthiazol-2-yl)-2,5-diphenyltetrazolium bromide assay as previously described^29. 4000 of drug-resistant HCT-116 p53+/+, HCT-116 p53−/− and HCT-116 p53−/− isogenic colon cancer cells are seeded on 96-well plates per well. After overnight pre-incubation, the cells are exposed to different concentrations of pomiferin (namely 100, 50, 25, 12.5, 6.25, 3.125, 1.5625, 0.78, 0.39, 0.195, 0.079, 0.039 mol/L) for 3 days. Subsequently, 10 μL of MTT reagents is added to each well and incubated at 37° C. for 4 hours, followed by the addition of 100 μL solubilization buffer (10% SDS in 0.01 mol/L HCl) and overnight incubation. Absorbance at 585 nm is determined from each well on the following day. The percentage of cell viability is calculated using the following formula: Cell viability (%)=Cells numbertreated/Cells numberDMSO control×100. Data is obtained from three independent experiments.

[2] = system: caspase-3 deficient (caspase 3KO) mouse embryonic fibroblasts; test: MTT cytotoxicity assay, caspase 3KO MEFs; assay type: cell-based; details: Fibroblast, 72 h, 3 days, read-out: Means of IC50
Protocol: as §1, with “2500” for “4000”, “caspase wild-type (caspase WT), caspase-3 deficient (caspase 3KO), caspase-7 deficient (caspase 7KO), caspase-3/-7 deficient (caspase 3/7 DKO), caspase-8 deficient (caspase 8KO), Bax-Bak wild-type (Bak-Bak WT)” for “drug-resistant HCT-116 p53+/+, HCT-116 p53−/−”, “Bax-Bak double knock out (Bak-Bak DKO) mouse embryonic fibroblasts (MEFs)” for “HCT-116 p53−/− isogenic colon cancer cells”, “μmol/L)” for “mol/L)”

[3] = system: caspase wild-type (caspase WT) mouse embryonic fibroblasts; test: MTT cytotoxicity assay, caspase WT MEFs; assay type: cell-based; details: Fibroblast, 72 h, 3 days, read-out: Means of IC50
Protocol: as §1, with “2500” for “4000”, “caspase wild-type (caspase WT), caspase-3 deficient (caspase 3KO), caspase-7 deficient (caspase 7KO), caspase-3/-7 deficient (caspase 3/7 DKO), caspase-8 deficient (caspase 8KO), Bax-Bak wild-type (Bak-Bak WT)” for “drug-resistant HCT-116 p53+/+, HCT-116 p53−/−”, “Bax-Bak double knock out (Bak-Bak DKO) mouse embryonic fibroblasts (MEFs)” for “HCT-116 p53−/− isogenic colon cancer cells”, “μmol/L)” for “mol/L)”

[4] = system: Hep3B, HepG2, H1299, MCF-7, A549 cancer cells and normal human hepatocyte (LO2); test: Endogenous LC3 puncta immunofluorescence in cancer and normal cells; assay type: cell-based; details: 10 μM, FIG. 2
Protocol: The detection of endogenous LC3 puncta formation is conducted using immunofluorescence staining method as described below. In brief, pomiferin-treated cancer cells (Hep3B, HepG2, H1299, MCF-7 and A549) or normal human hepatocyte (LO2) on cover slips are fixed with 4% paraformaldehyde (Sigma) for 20 min at room temperature and then rinsed with PBS. Immerse coverslips in methanol at room temperature for 2 min. After ishing with PBS, the cells are then incubated with anti-LC3 (1:200) in TBST (100 mM Tris HCl, pH 7.5, 150 mM NaCl, 0.05% Tween 20 and 5% BSA) overnight at 4. […] The coverslips are then mounted with FluorSave™ mounting media (Calbiochem, San Diego, Calif., USA) for fluorescence imaging and localization of LC3 autophagosomes are captured under the API Delta Vision Live-cell Imaging System (Applied Precision Inc., GE Healthcare Company, Washington, USA). To quantify autophagy, guidelines are followed to monitor autophagy^20, the percentage of cells with punctuate LC3 immunofluorescence staining is calculated by counting the number of the cells showing the punctuate pattern of LC3 fluorescence (>10 dots/cell) in immunofluorescence positive cells over the total number of cells in the same field. A minimum of 1000 cells from randomly selected fields are scored.

Bax-Bak wild-type MEFs = test: Annexin V/PI flow cytometry cell death, Bax-Bak wild-type MEFs; assay type: cell-based, mouse; details: 5 μM, 24 h
Protocol: (§2) Cell death is measured using an annexin V staining kit (BD Biosciences, San Jose, Calif., USA). Briefly, Bax-Bak wild-type and Bax-Bak DKO MEFs are treated with the 5 μM pomiferin for 24 h. Cells are then harvested and analysed by multiparametric flow cytometry using FITC-Annexin V and Propidium iodide staining (BD Biosciences, San Jose, Calif., USA) according to the manufacturer's instructions. Flow cytometry is then carried out using a FACSCalibur flow cytometer (BD Biosciences, San Jose, Calif., USA). Data acquisition and analysis is performed with CellQuest (BD Biosciences, San Jose, Calif., USA). Data are obtained from three independent experiments.

[5] = system: caspase-3/-7 deficient (caspase 3/7 DKO) mouse embryonic fibroblasts; test: MTT cytotoxicity assay, caspase 3/7 DKO MEFs; assay type: cell-based; details: Fibroblast, 72 h, 3 days, read-out: Means of IC50
Protocol: as §1, with “2500” for “4000”, “caspase wild-type (caspase WT), caspase-3 deficient (caspase 3KO), caspase-7 deficient (caspase 7KO), caspase-3/-7 deficient (caspase 3/7 DKO), caspase-8 deficient (caspase 8KO), Bax-Bak wild-type (Bak-Bak WT)” for “drug-resistant HCT-116 p53+/+, HCT-116 p53−/−”, “Bax-Bak double knock out (Bak-Bak DKO) mouse embryonic fibroblasts (MEFs)” for “HCT-116 p53−/− isogenic colon cancer cells”, “μmol/L)” for “mol/L)”

[6] = system: Atg7 deficient (Atg7−/−) mouse embryonic fibroblasts; test: Annexin V/PI flow cytometry cell death, Atg7−/− MEFs; assay type: cell-based; details: 2 μM, 24 h, FIG. 6B
Protocol: as §2, with “viability” for “death”, “Atg7” for “Bax-Bak”, “wild-type (Atg7+/+ or Atg7-wt)” for “wild-type”, “Atg7 deficient (Atg7−/− or Atg7-ko) mouse embryonic fibroblasts (MEFs)” for “Bax-Bak DKO MEFs”, “2” for “5”

[7] = system: HCT116 p53+/− (heterozygous) isogenic colon cancer cells; test: MTT cytotoxicity assay, HCT116 p53+/−; assay type: cell-based; details: Homo sapiens, HCT-116, 72 h, 3 days, read-out: Means of IC50
Protocol: as §1

## CC(C)=CCc1c2c(c3occ(-c4ccc(O)c(O)c4)c(=O)c3c1O)C=CC(C)(C)O2 [pomiferin]
[1]
  pIC50: 5.19
[2]
  pIC50: 5.67
[3]
  pIC50: 5.12
[4]
  TRITC-LC3 puncta formation: induces TRITC-LC3 puncta formation in all tested cancer and normal cells
Bax-Bak wild-type MEFs
  cell death: ~40%
[5]
  pIC50: 5.66
[6]
  cell death (in words): not in autophagy deficient cells
[7]
  pIC50: 5.25

Reference: US20170014375A1, “PHARMACEUTICAL COMPOSITION COMPRISING EFFECTIVE DOSE OF POMIFERIN FOR TREATING CANCERS” (Macau University of Science and Technology, priority 2015, published 2017)
